# Data: ChEMBL document CHEMBL5055668 (J Med Chem, 2021)
# Activity calls are given as the source filed them. No cut-off for these calls is given here.
# Target: T1, Macrophage colony-stimulating factor 1 receptor (Mus musculus) (UniProt P09581)
# T1 sequence (whole entry): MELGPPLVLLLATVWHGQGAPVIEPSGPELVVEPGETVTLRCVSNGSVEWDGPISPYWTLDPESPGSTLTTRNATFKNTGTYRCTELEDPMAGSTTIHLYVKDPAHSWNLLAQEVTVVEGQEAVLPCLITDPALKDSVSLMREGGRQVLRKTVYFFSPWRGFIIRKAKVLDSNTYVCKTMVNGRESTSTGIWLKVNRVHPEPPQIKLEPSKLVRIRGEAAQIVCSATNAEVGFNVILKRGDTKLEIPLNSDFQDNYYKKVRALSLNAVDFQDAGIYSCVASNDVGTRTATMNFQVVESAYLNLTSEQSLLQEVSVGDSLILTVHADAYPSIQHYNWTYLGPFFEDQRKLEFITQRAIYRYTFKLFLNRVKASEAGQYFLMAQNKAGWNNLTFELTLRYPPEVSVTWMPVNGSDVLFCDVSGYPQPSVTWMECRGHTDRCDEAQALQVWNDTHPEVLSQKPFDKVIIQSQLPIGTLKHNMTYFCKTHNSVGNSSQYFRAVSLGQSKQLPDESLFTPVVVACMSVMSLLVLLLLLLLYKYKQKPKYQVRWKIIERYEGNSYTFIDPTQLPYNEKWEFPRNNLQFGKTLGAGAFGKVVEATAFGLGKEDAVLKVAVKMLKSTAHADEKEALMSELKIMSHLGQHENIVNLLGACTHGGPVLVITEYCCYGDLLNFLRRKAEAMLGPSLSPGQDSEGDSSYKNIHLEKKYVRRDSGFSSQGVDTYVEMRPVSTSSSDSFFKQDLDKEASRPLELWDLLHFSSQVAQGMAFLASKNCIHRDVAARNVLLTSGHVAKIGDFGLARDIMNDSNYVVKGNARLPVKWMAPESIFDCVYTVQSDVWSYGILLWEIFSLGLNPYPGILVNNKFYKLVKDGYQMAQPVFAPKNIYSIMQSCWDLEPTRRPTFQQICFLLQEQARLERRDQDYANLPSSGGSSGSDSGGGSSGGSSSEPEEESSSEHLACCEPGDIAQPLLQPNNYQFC
# Assay: Inhibition of CSF-1R signaling pathway in C57BL/6 mouse BMDM cells assessed as reduction in M-CSF induced CSF-1R phosphorylation at 100 nM preincubated for 12 hrs followed by M-CSF stimulation for 30 mins by Western blot analysis
# Assay type: cell-based
# Settings: not given
row,SMILES,inhibition
1,Cc1[nH]c(/C=C2\C(=O)Nc3cc(NC(=O)Nc4cc(C(C)(C)C)on4)ccc32)c(C)c1NC(=O)CCN(C)C,Active
2,Cc1[nH]c(/C=C2\C(=O)Nc3cc(NC(=O)Nc4cc(C(C)(C)C)on4)ccc32)c(C)c1NC(=O)CCN1CCCC1,Active
3,Cc1[nH]c(/C=C2\C(=O)Nc3cc(NC(=O)Nc4cc(C(C)(C)C)on4)ccc32)c(C)c1NC(=O)C1CCCNC1 (configuration not stated),Active
4,CCNCCC(=O)Nc1c(C)[nH]c(/C=C2\C(=O)Nc3cc(NC(=O)Nc4cc(C(C)(C)C)on4)ccc32)c1C,Active
5,CCCNCCC(=O)Nc1c(C)[nH]c(/C=C2\C(=O)Nc3cc(NC(=O)Nc4cc(C(C)(C)C)on4)ccc32)c1C,Active
6,Cc1[nH]c(/C=C2\C(=O)Nc3cc(NC(=O)Nc4cc(C(C)(C)C)on4)ccc32)c(C)c1NC(=O)[C@@H]1CCNC1,Active
7,Cc1[nH]c(/C=C2\C(=O)Nc3cc(NC(=O)Nc4cc(C(C)(C)C)on4)ccc32)c(C)c1NC(=O)C1CCCCN1 (configuration not stated),Active
8,FC(F)(F)c1ccc(CNc2ccc(Cc3c[nH]c4ncc(Cl)cc34)cn2)cn1 [PEXIDARTINIB],Active
9,Cc1[nH]c(/C=C2\C(=O)Nc3cc(NC(=O)Nc4cc(C(C)(C)C)on4)ccc32)c(C)c1NC(=O)CCN1CCCCC1,Active
10,Cc1[nH]c(/C=C2\C(=O)Nc3cc(NC(=O)Nc4cc(C(C)(C)C)on4)ccc32)c(C)c1NC(=O)CCN1CCN(C)CC1,Active

# Tested on: MC-38
# Assay: Antitumor activity against mouse MC38 cells allografted in C57BL6 mouse assessed as tumor growth inhibition at 20 mg/kg, po administered daily for 2 weeks by caliper method
# Settings: MC-38, po, 336 h, read-out: TGI
row,SMILES,inhibition in vivo at 20 mg/kg
1,FC(F)(F)c1ccc(CNc2ccc(Cc3c[nH]c4ncc(Cl)cc34)cn2)cn1 [PEXIDARTINIB],40.3%

# Target: Macrophage colony-stimulating factor 1 receptor (Homo sapiens, UniProt P07333)
# Sequence (P07333 whole entry): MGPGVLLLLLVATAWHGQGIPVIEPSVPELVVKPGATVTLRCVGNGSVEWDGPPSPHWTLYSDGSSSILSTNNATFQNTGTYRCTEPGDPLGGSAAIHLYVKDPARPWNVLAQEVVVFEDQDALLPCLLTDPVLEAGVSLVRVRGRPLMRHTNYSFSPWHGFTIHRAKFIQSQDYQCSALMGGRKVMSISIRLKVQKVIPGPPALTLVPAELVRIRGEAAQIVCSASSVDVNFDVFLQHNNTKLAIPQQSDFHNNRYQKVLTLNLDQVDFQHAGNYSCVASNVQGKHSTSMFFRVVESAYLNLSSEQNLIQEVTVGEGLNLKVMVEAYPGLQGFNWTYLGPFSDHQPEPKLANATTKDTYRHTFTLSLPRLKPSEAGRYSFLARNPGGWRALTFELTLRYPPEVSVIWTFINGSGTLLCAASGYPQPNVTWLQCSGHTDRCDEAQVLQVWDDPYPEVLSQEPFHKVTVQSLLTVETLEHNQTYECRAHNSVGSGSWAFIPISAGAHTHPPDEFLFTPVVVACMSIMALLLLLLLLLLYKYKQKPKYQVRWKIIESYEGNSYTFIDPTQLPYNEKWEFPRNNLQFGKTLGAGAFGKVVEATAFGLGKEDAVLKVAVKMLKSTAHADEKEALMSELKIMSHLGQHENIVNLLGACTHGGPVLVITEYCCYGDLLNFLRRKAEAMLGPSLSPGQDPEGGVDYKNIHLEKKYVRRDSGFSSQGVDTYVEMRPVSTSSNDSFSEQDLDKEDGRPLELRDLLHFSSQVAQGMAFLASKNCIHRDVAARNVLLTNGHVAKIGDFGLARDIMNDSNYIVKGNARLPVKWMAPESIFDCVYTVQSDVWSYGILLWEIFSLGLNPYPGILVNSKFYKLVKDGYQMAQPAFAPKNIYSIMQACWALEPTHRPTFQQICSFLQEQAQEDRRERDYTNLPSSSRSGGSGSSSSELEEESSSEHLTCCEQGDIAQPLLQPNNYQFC
# Settings: not given
row,SMILES,IC50
1,CCN(CC)CCNC(=O)c1c(C)[nH]c(/C=C2\C(=O)Nc3cc(NC(=O)NC4CCN(C)CC4)ccc32)c1C,> 3 µM
